Test results taken from ChEMBL document CHEMBL1135518 (J Med Chem, 2002).

Legend:
[1] = The binding affinity at the Histamine H1 receptor determined using [3H]pyrilamine; design: species or system Cavia porcellus
[2] = target: Norepinephrine transporter (Rattus norvegicus, UniProt Q9WTR4); assay: The binding affinity at the Norepinephrine transporter reuptake sites determined using competition binding assay
[3] = test system: Rattus norvegicus; assay: The increase in the extracellular levels of DOPAC in the rat ventral hippocampus at a dose of 5.0 mg/kg sc measured by in vivo microdialysis; format: functional; details: route subcutaneous
[4] = target: 5-hydroxytryptamine receptor 2A (Rattus norvegicus, UniProt P14842); assay: The binding affinity at 5-hydroxytryptamine 2A receptor was determined using [3H]ketanserin
[5] = target: T1, Adrenergic receptor alpha-2 (Rattus norvegicus, UniProt P22086+P19328+P22909); assay: The binding affinity at the Alpha-2 adrenergic receptor determined using [3H]RX-821002; Not tested; format: protein assay
T1 sequence (P22086 whole entry): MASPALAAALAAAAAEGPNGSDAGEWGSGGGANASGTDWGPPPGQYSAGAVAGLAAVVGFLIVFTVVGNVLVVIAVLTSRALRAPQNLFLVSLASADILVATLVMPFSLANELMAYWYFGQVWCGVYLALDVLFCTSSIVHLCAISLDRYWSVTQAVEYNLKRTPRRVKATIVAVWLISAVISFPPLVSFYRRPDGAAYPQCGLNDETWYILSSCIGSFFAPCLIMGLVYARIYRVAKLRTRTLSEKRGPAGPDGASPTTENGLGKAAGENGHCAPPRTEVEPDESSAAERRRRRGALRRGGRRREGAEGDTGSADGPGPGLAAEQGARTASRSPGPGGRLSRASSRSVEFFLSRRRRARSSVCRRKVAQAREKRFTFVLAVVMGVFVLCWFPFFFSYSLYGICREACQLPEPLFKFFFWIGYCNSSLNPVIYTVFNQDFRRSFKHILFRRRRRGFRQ
T1 sequence (P19328 whole entry): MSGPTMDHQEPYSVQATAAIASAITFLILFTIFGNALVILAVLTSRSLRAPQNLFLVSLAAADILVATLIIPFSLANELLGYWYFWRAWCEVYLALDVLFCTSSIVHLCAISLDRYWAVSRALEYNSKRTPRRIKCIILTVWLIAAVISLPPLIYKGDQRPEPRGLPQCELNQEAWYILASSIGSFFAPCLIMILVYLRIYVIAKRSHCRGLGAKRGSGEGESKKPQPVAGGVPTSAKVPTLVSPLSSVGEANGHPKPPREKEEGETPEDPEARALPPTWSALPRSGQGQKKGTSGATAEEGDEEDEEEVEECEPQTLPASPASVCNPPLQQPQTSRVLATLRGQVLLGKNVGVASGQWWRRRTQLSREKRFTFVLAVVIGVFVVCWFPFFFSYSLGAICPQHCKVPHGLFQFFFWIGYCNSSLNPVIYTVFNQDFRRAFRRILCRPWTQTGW
T1 sequence (P22909 whole entry): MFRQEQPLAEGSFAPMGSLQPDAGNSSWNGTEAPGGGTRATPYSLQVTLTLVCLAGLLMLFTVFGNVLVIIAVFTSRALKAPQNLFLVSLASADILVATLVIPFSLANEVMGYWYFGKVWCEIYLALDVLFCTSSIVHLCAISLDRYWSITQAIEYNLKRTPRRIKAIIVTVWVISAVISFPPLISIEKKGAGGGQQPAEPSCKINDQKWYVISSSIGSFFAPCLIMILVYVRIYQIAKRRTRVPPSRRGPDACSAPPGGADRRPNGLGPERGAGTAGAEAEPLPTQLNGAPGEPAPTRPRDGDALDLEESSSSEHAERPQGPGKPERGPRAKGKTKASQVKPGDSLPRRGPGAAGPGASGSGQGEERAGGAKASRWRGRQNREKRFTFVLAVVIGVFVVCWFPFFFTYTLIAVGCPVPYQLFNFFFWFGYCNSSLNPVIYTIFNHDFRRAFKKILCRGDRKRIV

[6] = target: T2, Adrenergic receptor alpha-1 (Rattus norvegicus, UniProt P15823+P23944+P43140); assay: The binding affinity at Alpha-1 adrenergic receptor determined using [3H]prazosin; format: protein assay
T2 sequence (P15823 whole entry): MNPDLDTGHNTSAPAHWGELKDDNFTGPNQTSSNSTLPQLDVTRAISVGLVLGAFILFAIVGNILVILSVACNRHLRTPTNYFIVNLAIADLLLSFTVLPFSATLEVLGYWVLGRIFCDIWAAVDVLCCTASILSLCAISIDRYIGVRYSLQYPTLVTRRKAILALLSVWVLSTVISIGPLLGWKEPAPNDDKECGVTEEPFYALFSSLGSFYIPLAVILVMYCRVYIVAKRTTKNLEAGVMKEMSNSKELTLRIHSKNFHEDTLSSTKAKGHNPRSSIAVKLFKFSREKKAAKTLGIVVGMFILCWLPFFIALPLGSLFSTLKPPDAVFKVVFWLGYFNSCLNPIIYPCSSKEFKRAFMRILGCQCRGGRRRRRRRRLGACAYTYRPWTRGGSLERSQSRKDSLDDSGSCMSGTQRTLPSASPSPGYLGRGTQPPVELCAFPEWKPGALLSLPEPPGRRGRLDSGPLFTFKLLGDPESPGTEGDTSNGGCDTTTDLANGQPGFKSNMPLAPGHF
T2 sequence (P23944 whole entry): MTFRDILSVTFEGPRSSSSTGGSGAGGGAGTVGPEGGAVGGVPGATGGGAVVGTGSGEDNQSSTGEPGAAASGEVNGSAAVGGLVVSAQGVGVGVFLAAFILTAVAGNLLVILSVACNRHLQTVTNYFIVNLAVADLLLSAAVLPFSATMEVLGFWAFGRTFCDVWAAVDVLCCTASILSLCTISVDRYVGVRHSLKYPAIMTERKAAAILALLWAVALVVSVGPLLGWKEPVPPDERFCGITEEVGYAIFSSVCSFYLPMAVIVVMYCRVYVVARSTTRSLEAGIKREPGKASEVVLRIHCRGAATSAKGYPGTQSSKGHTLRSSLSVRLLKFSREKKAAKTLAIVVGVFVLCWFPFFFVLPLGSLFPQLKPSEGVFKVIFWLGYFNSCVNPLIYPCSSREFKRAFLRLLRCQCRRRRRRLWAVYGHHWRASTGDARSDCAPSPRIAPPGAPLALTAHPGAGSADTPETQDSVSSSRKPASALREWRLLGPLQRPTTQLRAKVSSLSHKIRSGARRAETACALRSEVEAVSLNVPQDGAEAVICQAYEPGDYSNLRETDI
T2 sequence (P43140 whole entry): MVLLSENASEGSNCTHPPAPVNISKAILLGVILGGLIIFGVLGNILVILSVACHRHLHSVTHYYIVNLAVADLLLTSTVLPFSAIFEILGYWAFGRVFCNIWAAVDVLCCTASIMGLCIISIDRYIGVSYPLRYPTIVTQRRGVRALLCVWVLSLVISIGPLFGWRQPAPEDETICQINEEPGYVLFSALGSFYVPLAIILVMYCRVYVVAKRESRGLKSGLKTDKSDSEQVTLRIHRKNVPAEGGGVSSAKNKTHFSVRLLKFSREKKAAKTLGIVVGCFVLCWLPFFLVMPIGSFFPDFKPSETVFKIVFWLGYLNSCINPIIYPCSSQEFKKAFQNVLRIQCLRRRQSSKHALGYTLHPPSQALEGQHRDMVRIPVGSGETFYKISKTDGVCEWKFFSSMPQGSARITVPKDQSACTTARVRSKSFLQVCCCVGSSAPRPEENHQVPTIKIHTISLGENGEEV

[7] = target: T3, 5-hydroxytryptamine receptor 2C (Rattus norvegicus, UniProt P08909); assay: The binding affinity at 5-hydroxytryptamine 2C receptor was determined using [3H]mesulergine
T3 sequence (P08909 whole entry): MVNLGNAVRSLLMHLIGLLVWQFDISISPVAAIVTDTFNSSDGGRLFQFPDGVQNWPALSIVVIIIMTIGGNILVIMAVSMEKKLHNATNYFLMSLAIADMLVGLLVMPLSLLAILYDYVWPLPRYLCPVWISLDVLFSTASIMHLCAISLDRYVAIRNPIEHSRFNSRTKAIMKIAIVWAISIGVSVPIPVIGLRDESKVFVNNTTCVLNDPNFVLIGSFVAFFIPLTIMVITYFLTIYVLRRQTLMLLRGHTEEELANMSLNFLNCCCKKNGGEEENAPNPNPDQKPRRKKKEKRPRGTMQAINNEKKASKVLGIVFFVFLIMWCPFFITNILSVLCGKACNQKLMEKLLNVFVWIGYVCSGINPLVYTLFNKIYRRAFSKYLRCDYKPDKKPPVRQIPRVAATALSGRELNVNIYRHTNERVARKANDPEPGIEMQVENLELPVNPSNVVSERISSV

[8] = target: T4, D(4) dopamine receptor (Homo sapiens, UniProt P21917); assay: The binding affinity at the Dopamine receptor D4 determined using [3H]YM-09151-2
T4 sequence (P21917 whole entry): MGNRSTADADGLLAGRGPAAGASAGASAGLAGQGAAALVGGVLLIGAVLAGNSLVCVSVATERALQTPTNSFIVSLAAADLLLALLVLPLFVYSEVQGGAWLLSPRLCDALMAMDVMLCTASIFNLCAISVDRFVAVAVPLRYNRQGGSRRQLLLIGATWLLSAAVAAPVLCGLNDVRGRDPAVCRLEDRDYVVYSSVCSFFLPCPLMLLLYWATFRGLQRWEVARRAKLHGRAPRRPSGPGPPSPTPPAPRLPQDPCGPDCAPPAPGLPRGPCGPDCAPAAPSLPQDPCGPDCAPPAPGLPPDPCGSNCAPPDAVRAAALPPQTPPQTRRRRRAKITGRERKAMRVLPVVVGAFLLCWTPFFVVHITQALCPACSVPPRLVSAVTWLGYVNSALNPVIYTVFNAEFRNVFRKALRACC

[9] = test system: Rattus norvegicus; assay: The increase in the extracellular levels of 5-HT in the rat ventral hippocampus at a dose of 5.0 mg/kg sc measured by in vivo microdialysis; format: functional; details: route subcutaneous
[10] = target: Sodium-dependent serotonin transporter (Rattus norvegicus, UniProt P31652); assay: The binding affinity at the 5-HT reuptake sites determined using competition binding assay
Sequence of Sodium-dependent serotonin transporter (P31652 whole entry): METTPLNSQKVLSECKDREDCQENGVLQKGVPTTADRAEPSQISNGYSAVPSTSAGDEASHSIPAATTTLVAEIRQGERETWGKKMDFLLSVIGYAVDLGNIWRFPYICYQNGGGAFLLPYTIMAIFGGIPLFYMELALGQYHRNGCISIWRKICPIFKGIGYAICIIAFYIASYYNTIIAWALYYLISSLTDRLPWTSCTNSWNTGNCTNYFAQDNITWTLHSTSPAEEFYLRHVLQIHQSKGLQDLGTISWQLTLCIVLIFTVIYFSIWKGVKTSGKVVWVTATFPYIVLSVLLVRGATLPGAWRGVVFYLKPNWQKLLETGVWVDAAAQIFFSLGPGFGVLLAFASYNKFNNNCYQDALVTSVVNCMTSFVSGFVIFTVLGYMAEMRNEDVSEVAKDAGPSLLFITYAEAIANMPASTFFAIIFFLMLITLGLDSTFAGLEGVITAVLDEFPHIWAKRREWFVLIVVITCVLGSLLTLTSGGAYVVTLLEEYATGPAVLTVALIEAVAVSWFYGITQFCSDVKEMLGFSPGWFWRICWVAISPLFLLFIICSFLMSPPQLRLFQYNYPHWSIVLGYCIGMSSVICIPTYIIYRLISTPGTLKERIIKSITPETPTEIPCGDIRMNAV

Sequence of Norepinephrine transporter (Q9WTR4 whole entry): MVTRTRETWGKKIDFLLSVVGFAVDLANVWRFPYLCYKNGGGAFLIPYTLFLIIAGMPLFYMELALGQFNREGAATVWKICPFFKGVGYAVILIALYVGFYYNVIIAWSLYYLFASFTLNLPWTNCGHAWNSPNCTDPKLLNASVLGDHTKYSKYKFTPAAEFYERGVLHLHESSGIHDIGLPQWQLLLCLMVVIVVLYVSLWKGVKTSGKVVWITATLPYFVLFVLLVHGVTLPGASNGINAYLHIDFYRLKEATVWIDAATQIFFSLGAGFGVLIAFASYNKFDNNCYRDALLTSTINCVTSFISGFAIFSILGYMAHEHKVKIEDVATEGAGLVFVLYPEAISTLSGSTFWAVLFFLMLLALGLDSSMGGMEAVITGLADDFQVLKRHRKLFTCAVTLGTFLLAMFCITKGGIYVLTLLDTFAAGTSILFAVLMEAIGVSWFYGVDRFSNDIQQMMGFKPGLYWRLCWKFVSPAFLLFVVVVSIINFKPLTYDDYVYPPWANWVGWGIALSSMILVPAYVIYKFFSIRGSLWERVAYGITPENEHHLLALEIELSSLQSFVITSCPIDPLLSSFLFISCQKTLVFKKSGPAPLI
Sequence of 5-hydroxytryptamine receptor 2A (P14842 whole entry): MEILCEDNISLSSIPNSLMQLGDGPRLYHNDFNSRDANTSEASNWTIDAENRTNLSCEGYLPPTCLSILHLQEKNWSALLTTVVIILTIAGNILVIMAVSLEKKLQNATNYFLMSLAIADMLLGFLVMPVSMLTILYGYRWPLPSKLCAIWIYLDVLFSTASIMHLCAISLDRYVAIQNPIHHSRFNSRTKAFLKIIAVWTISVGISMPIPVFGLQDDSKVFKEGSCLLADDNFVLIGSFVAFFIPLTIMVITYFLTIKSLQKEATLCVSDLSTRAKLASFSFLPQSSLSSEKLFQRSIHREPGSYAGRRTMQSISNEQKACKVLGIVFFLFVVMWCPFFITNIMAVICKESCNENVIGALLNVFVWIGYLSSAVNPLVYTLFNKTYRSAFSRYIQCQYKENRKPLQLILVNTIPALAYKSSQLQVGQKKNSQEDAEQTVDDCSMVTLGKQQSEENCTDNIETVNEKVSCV

Compound	Ki [1]	IC50 [2]	Increase [3]	IC50 [4]	IC50 [5]	Ki [6]	Ki [7]	Ki [8]	Increase [9]	IC50 [10]
CN1CCN2c3ccccc3Cc3ccccc3C2C1 (racemic) [MIANSERIN]	0.0042 µM	0.022 µM	160%	–	–	–	–	–	–	–
CN1CCN2c3c(O)cccc3Cc3ccccc3C2C1 (racemic)	0.021 µM	–	–	0.012 µM	1 µM	1 µM	0.002 µM	–	–	–
CN1CCN2c3ncccc3Cc3ccccc3C2C1 (racemic) [MIRTAZAPINE]	0.0051 µM	0.26 µM	200%	–	–	1.05 µM	0.0055 µM	> 0.025 µM	180%	> 0.1 µM
CN1CCN2c3c(cccc3OS(=O)(=O)C(F)(F)F)Cc3ccccc3C2C1 (racemic)	–	–	–	0.277 µM	1 µM	–	–	–	–	–
